Measured values from patent publication US20090042937A1, “[…] USE IN TREATING OR […]-RELATED DISEASES” (priority 2005, published 2009).
Several values for one entry are separate records, joined by “and”; a condition that tells them apart may be missing. Identical values can stand only once.

What was measured:
[1] = tested on: Immunophilin (FKBP25) (AA120298); assay: Microarray gene expression in cardiac tissue of Tempol-fed mice; type: in vivo; conditions: 5 mg/g of food from 14 to 31 months
Experimental: (§1) To assess the effects of Tempol on gene expression, Tempol was administered to experimental mice at a dose of 5 mg/g of food from 14 months to 31 months after birth. Mice receiving the same food without the addition of Tempol were used as a negative control. At the age of 31 months, the experimental animals were sacrificed and the hearts were surgically removed. The expression of a broad spectrum of genes in the cardiac tissue was assessed using chip-based microarray technology. Such chips are well known in the art and are widely used to assess gene expression.

[2] = tested on: Interferon-inducible protein (AA002526); assay: as above; type: in vivo; conditions: 5 mg/g of food from 14 to 31 months
Experimental: as §1

[3] = tested on: Interferon α-induced 11.5 kd protein (P27) (AA120109); assay: as above; type: in vivo; conditions: 5 mg/g of food from 14 to 31 months
Experimental: as §1

Cyclophilin A (AA116993) = assay: as above; type: in vivo; conditions: 5 mg/g of food from 14 to 31 months
Experimental: as §1

Cathepsin B (M65270) = assay: as above; type: in vivo
Experimental: as §1

[4] = tested on: Lymphocyte receptor/polyubiquitin (W13546); assay: as above; type: in vivo; conditions: 5 mg/g of food from 14 to 31 months
Experimental: as §1

CD53 antigen (X97227) = assay: as above; type: in vivo; conditions: 5 mg/g of food from 14 to 31 months
Experimental: as §1

[5] = tested on: Selenium-binding protein 2 (M32032); assay: as above; type: in vivo; conditions: 5 mg/g of food from 14 to 31 months
Experimental: as §1

[6] = tested on: Serum amyloid A-1 protein precursor (M13521); assay: as above; type: in vivo
Experimental: as §1

[7] = tested on: XPE UV-damaged DNA binding factor (W62091); assay: as above; type: in vivo; conditions: 5 mg/g of food from 14 to 31 months
Experimental: as §1

[8] = tested on: T-lymphocyte 1/rpt-1 regulatory protein (J03776); assay: as above; type: in vivo; conditions: 5 mg/g of food from 14 to 31 months
Experimental: as §1

[9] = tested on: T-cell specific GTPase (U15636); assay: as above; type: in vivo; conditions: 5 mg/g of food from 14 to 31 months
Experimental: as §1

[10] = tested on: Serum amyloid P-component precursor (SAP) (Y00426); assay: as above; type: in vivo
Experimental: as §1

[11] = tested on: Interferon induced protein (AA013783); assay: as above; type: in vivo; conditions: 5 mg/g of food from 14 to 31 months
Experimental: as §1

Hsp-90 homolog (W62326) = assay: as above; type: in vivo; conditions: 5 mg/g of food from 14 to 31 months
Experimental: as §1

[12] = tested on: XPE-DNA damage binding protein (AA104319); assay: as above; type: in vivo; conditions: 5 mg/g of food from 14 to 31 months
Experimental: as §1

JAK-1 (AA066354) = assay: as above; type: in vivo
Experimental: as §1

[13] = tested on: Interferon γ-inducible protein/IRG 47GTP-binding (M63690); assay: as above; type: in vivo; conditions: 5 mg/g of food from 14 to 31 months
Experimental: as §1

CD52 antigen (M55561) = assay: as above; type: in vivo; conditions: 5 mg/g of food from 14 to 31 months
Experimental: as §1

caspase 3 [14] = assay: Circulating serum protein levels in patient after Tempol treatment; type: in vivo, human; conditions: 1500 mg per day for 180 days
From the text: (§2) This may be administered in a single dose, or may be administered as a number of smaller doses over a 24-hour period: for example, three 500-mg doses at eight-hour intervals. Following treatment, the circulating serum protein levels of serum amyloid P-component precursor, serum amyloid A-1 protein precursor, JAK-1, cathepsin B, eukaryotic translation initiation factor 4E member 2, cyclooxygenase-1, and caspase 3 are reduced. Furthermore, the serum protein levels of eukaryotic translation initiation factor 4E binding protein are increased.
as §2, with “JAK-1, and” for “JAK-1,”

[15] = tested on: eukaryotic translation initiation factor 4E binding protein; assay: as above; type: in vivo, human; conditions: 1500 mg per day for 180 days
From the text: as §2
as §2, with “JAK-1, and” for “JAK-1,”

cathepsin B = assay: as above; type: in vivo, human; conditions: 1500 mg per day for 180 days
From the text: as §2
as §2, with “JAK-1, and” for “JAK-1,”

JAK-1 = assay: as above; type: in vivo, human; conditions: 1500 mg per day for 180 days
From the text: as §2
as §2, with “JAK-1, and” for “JAK-1,”

[16] = tested on: serum amyloid A-1 protein precursor; assay: as above; type: in vivo, human; conditions: 1500 mg per day for 180 days
From the text: as §2
as §2, with “JAK-1, and” for “JAK-1,”

[17] = tested on: eukaryotic translation initiation factor 4E member 2; assay: as above; type: in vivo, human; conditions: 1500 mg per day for 180 days
From the text: as §2
as §2, with “JAK-1, and” for “JAK-1,”

[18] = tested on: serum amyloid P-component precursor; assay: as above; type: in vivo, human; conditions: 1500 mg per day for 180 days
From the text: as §2
as §2, with “JAK-1, and” for “JAK-1,”

cyclooxygenase-1 = assay: as above; type: in vivo, human; conditions: 1500 mg per day for 180 days
From the text: as §2
as §2, with “JAK-1, and” for “JAK-1,”

[19] = tested on: Eukaryotic translation initiation factor for E binding protein 1 (EIF4EBP1); assay: Microarray gene expression in adipose tissue of Tempol-fed mice; type: in vivo
Experimental: (§3) In a further gene expression study, Tempol was administered to experimental mice at a dose of 5 g/kg of diet from 12 months through 15 months. Mice receiving the same diet without the addition of Tempol were used as a negative control. At the age of 15 months, the adipose tissue of the experimental animals was obtained. The expression of a broad spectrum of genes in the adipose tissue was assessed using chip-based microarray technology. Specifically, in this case an Affymetrix MOE430A 2.0 array, containing 12,960 genes, was employed. Such chips are well known in the art and are widely used to assess gene expression.

Cyclooxygenase 1 (COX-1) = assay: as above; type: in vivo
Experimental: as §3

Caspase 3 [20] = assay: as above; type: in vivo
Experimental: as §3

[21] = tested on: Eukaryotic translation initiation factor 4 E2 (EIF4E2); assay: as above; type: in vivo
Experimental: as §3

[22] = cardiac tissue of experimental mice, Table 1
[23] = Example 1: 70-kilogram patient with symptoms of dementia
[24] = Example 2: 70-kilogram patient with familial risk factors, no symptoms of dementia
[25] = adipose tissue of experimental mice, Table 4

## CC1(C)CC(O)CC(C)(C)N1[O] [Tempol, 4-hydroxy-2,2,6,6-tetramethylpiperidine-1-oxyl]
[1]; TEMPOL-treated vs control mice
  Fold change: −2.1 fold
[1]; individual mice
  Expression, TEMPOL-treated mice (tp51, tp52, tp53): 200 and 154 and 164
[2]; TEMPOL-treated vs control mice
  Fold change: −2.7 fold
[2]; individual mice
  Expression, TEMPOL-treated mice (tp51, tp52, tp53): 26 and 34 and 36
[3]; TEMPOL-treated vs control mice
  Fold change: −2.3 fold
[3]; individual mice
  Expression, TEMPOL-treated mice (tp51, tp52, tp53): 149 and 88 and 72
Cyclophilin A (AA116993); TEMPOL-treated vs control mice
  Fold change: −2.1 fold
Cyclophilin A (AA116993); individual mice
  Expression, TEMPOL-treated mice (tp51, tp52, tp53): 12 and −14 and −10
Cathepsin B (M65270); M65270, cardiac tissue, TEMPOL-treated vs control mice, 5 mg/g of food from 14 to 31 months
  Fold change: −2.8 fold
Cathepsin B (M65270); M65270, cardiac tissue, individual mice, 5 mg/g of food from 14 to 31 months
  Expression, TEMPOL-treated mice (tp51, tp52, tp53): −12 and 6 and 13
Cathepsin B (M65270); cardiac tissue of experimental mice, text restating Table 2
  expression of cathepsin B reduced: 2.8 fold
[4]; TEMPOL-treated vs control mice
  Fold change: −55.2 fold
[4]; individual mice
  Expression, TEMPOL-treated mice (tp51, tp52, tp53): −16 and −66 and 1331
CD53 antigen (X97227); TEMPOL-treated vs control mice
  Fold change: −2.1 fold
CD53 antigen (X97227); individual mice
  Expression, TEMPOL-treated mice (tp51, tp52, tp53): 21 and −17 and −13
[5]; TEMPOL-treated vs control mice
  Fold change: −2.1 fold
[5]; individual mice
  Expression, TEMPOL-treated mice (tp51, tp52, tp53): 554 and 600 and 670
[6]; M13521, cardiac tissue, TEMPOL-treated vs control mice, 5 mg/g of food from 14 to 31 months
  Fold change: −2.5 fold
[6]; M13521, cardiac tissue, individual mice, 5 mg/g of food from 14 to 31 months
  Expression, TEMPOL-treated mice (tp51, tp52, tp53): 6 and 1 and 8
[6]; [22]
  expression of serum amyloid A-1 protein precursor reduced: 2.5 fold
[7]; TEMPOL-treated vs control mice
  Fold change: −2.9 fold
[7]; individual mice
  Expression, TEMPOL-treated mice (tp51, tp52, tp53): 61 and 75 and 213
[8]; TEMPOL-treated vs control mice
  Fold change: −2.7 fold
[8]; individual mice
  Expression, TEMPOL-treated mice (tp51, tp52, tp53): 17 and 42 and 29
[9]; TEMPOL-treated vs control mice
  Fold change: −2.0 fold
[9]; individual mice
  Expression, TEMPOL-treated mice (tp51, tp52, tp53): 146 and 79 and 164
[10]; Y00426, cardiac tissue, TEMPOL-treated vs control mice, 5 mg/g of food from 14 to 31 months
  Fold change: −2.8 fold
[10]; Y00426, cardiac tissue, individual mice, 5 mg/g of food from 14 to 31 months
  Expression, TEMPOL-treated mice (tp51, tp52, tp53): 43 and 61 and 119
[10]; [22]
  expression of serum amyloid P component precursor reduced: 2.8 fold
[11]; TEMPOL-treated vs control mice
  Fold change: −4.9 fold
[11]; individual mice
  Expression, TEMPOL-treated mice (tp51, tp52, tp53): −81 and 27 and 41
Hsp-90 homolog (W62326); TEMPOL-treated vs control mice
  Fold change: −2.4 fold
Hsp-90 homolog (W62326); individual mice
  Expression, TEMPOL-treated mice (tp51, tp52, tp53): 6 and 16 and 39
[12]; TEMPOL-treated vs control mice
  Fold change: −5.2 fold
[12]; individual mice
  Expression, TEMPOL-treated mice (tp51, tp52, tp53): 25 and 37 and 115
JAK-1 (AA066354); AA066354, cardiac tissue, TEMPOL-treated vs control mice, 5 mg/g of food from 14 to 31 months
  Fold change: −5.1 fold
JAK-1 (AA066354); AA066354, cardiac tissue, individual mice, 5 mg/g of food from 14 to 31 months
  Expression, TEMPOL-treated mice (tp51, tp52, tp53): 124 and 22 and 30
JAK-1 (AA066354); [22]
  expression of JAI(-1 reduced): 5.1 fold
[13]; TEMPOL-treated vs control mice
  Fold change: −2.0 fold
[13]; individual mice
  Expression, TEMPOL-treated mice (tp51, tp52, tp53): 29 and 20 and 1
CD52 antigen (M55561); TEMPOL-treated vs control mice
  Fold change: −3.5 fold
CD52 antigen (M55561); individual mice
  Expression, TEMPOL-treated mice (tp51, tp52, tp53): 106 and 177 and 171
Caspase 3 [14]; [23]
  circulating serum protein level of caspase 3: reduced
Caspase 3 [14]; [24]
  circulating serum protein level of caspase 3: reduced
[15]; [23]
  serum protein level of eukaryotic translation initiation factor 4E binding protein: increased
[15]; [24]
  serum protein level of eukaryotic translation initiation factor 4E binding protein: increased
Cathepsin B; [23]
  circulating serum protein level of cathepsin B: reduced
Cathepsin B; [24]
  circulating serum protein level of cathepsin B: reduced
JAK-1; [23]
  circulating serum protein level of JAK-1: reduced
JAK-1; [24]
  circulating serum protein level of JAK-1: reduced
[16]; [23]
  circulating serum protein level of serum amyloid A-1 protein precursor: reduced
[16]; [24]
  circulating serum protein level of serum amyloid A-1 protein precursor: reduced
[17]; [23]
  circulating serum protein level of eukaryotic translation initiation factor 4E member 2: reduced
[17]; [24]
  circulating serum protein level of eukaryotic translation initiation factor 4E member 2: reduced
[18]; [23]
  circulating serum protein level of serum amyloid P-component precursor: reduced
[18]; [24]
  circulating serum protein level of serum amyloid P-component precursor: reduced
cyclooxygenase-1; [23]
  circulating serum protein level of cyclooxygenase-1: reduced
cyclooxygenase-1; [24]
  circulating serum protein level of cyclooxygenase-1: reduced
[19]; EIF4EBP1, 5 g/kg of diet from 12 through 15 months, Affymetrix MOE430A 2.0 array
  Mean (Tempol-treated mice): 4737
[19]; EIF4EBP1, Tempol-treated vs control mice, 5 g/kg of diet from 12 through 15 months
  Fold change: 1.29 fold
[19]; Table 3
  expression of EIF4E binding protein 1 upregulated: 1.29 fold
Cyclooxygenase 1 (COX-1); COX-1, adipose tissue, 5 g/kg of diet from 12 through 15 months, Affymetrix MOE430A 2.0 array
  Mean (Tempol-treated mice): 331
Cyclooxygenase 1 (COX-1); COX-1, adipose tissue, Tempol-treated vs control mice, 5 g/kg of diet from 12 through 15 months
  Fold change: −1.18 fold
Cyclooxygenase 1 (COX-1); [25]
  expression of COX-1 reduced: 1.18 fold
Caspase 3 [20]; Caspase 3, adipose tissue, 5 g/kg of diet from 12 through 15 months, Affymetrix MOE430A 2.0 array
  Mean (Tempol-treated mice): 414
Caspase 3 [20]; Caspase 3, adipose tissue, Tempol-treated vs control mice, 5 g/kg of diet from 12 through 15 months
  Fold change: −1.47 fold
Caspase 3 [20]; [25]
  expression of caspase 3 reduced: 1.47 fold
[21]; EIF4E2, 5 g/kg of diet from 12 through 15 months, Affymetrix MOE430A 2.0 array
  Mean (Tempol-treated mice): 873
[21]; EIF4E2, Tempol-treated vs control mice, 5 g/kg of diet from 12 through 15 months
  Fold change: −1.23 fold
[21]; Table 4
  expression of the EIF4E2 protein downregulated: 1.23 fold
